# Reference: patent US11331290B2, “Niclosamide for the treatment of cancer metastasis” (Max-Delbrück-Centrum für Molekulare Medizin in der …, priority 2011, dated 2022)
# Experiments:
# [1] = test system: SW620, LS174T, SW480 and DLD-1 cells; assay: Wound healing assay (directed migration); format: cell-based, human; details: 1 μM daily, 4 days, vs respective solvent-treated control
# Procedure: For wound healing assay HCT116, SW620, LS174T, SW480 and DLD-1 cells were grown to form 60% confluent monolayers of cells in which a wound of about 300 μm width was inflicted with a sterile pipette tip. The medium was exchanged to remove non-adherent cells and the wounded monolayer was treated with 1 μM niclosamide or the respective amount of DMSO every 24 hours for 4 consecutive days. The progress of wound closure was monitored with microphotographs of 10× magnification taken with the Leica DM IL light microscope (Leica Microsystems) on day 0 and day 4. The wound healing experiment was performed three independent times.
# (A) S100A4 expression under niclosamide treatment. […] S100A4 expression was analyzed with qRT-PCR and immunoblot. […] Migration rates of cells treated with 1 μM niclosamide for 24 hours were determined in a Boyden chamber assay values were normalized to solvent-treated SW620 cells. […] Invaded cells in the lower chamber were counted and normalized to solvent-treated SW620 cells. Differences in solvent vs. niclosamide-treated cells were analyzed by Student's t test. […] The amount of viable cells per well was determined by MTT assay. […] (G) Quantification of colonies formed. Number of colonies (of more than 4 cells) was counted and normalized to solvent-treated SW620 cells. Differences in solvent vs. niclosamide-treated cells were analyzed by Student's t test. […]
# [2] = test system: HCT116-vector cells and HCT116-S100A4 cells; assay: Anchorage-dependent cell proliferation (MTT); format: cell-based, human; details: 1 μM daily
# Procedure: For cell proliferation determination of HCT116, SW620, LS174T, SW480 and DLD-1 cells 2×10^3 cells were seeded in 96-well-plates (for each day one plate) and were given 24 hours to attach to the bottom of the well. Cells were from then on treated daily with 1 μM niclosamide or the respective amount of DMSO. For determination of viable cells 3-(4,5-dimethyl-2-thiazol)-2,5-diphenyl-2H-tetrazolium bromide (MTT; Sigma) was added to a final concentration of 0.5 mg per mL and incubated for 3 hours at 37° C. and 5% CO2 in a humidified incubator. […] Crystallized MTT was resolved by 10% SDS in 10 mM HCl and the absorption was measured at 560 nm. […] The average MTT metabolisation was determined of two independent experiments each performed in triplicate.
# (A) Cell migration of HCT116-vector and HCT116-S100A4 cells exposed to niclosamide treatment. Cells were treated with 1 μM niclosamide for 24 hours and migration rates were measured with Boyden chamber assay. […] Cells were treated with 1 μM niclosamide for 24 hours and cell invasion was determined by Boyden chamber assay. (C) Directed migration of HCT116-vector and HCT116-S100A4 cells exposed to niclosamide treatment analyzed by wound healing assay. […] Cells were treated daily with 1 μM niclosamide and cell viability was determined with MTT assay. […] (F) Quantification of colonies formed. […]
# [3] = mice chronically fed 200 mg/kg, two years observation time; cited from earlier work
structure (smiles),measurement,setting,value
"O=C(Nc1ccc([N+](=O)[O-])cc1Cl)c1cc(Cl)ccc1O [niclosamide, 2′,5-dichloro-4′-nitrosalicylanilide]",directed migration (wound healing),[1],impaired
same,anchorage-dependent cell proliferation,[2],reduction of cell proliferation in both cell lines
same,adverse effects,[3],no adverse effects
